This note sets out measurements from patent US20260226020A1, “Nav 1.7 AND/OR Nav 1.8 BLOCKING HYDRAZIDES, PROCESSES FOR THE PREPARATION THEREOF, COMPOSITIONS, USES, METHODS OF TREATMENT USING SAME AND KITS” (Eurofarma Laboratórios S.A., priority 2023, published 2026).

A value given as a limit tells only on which side of the number the result lay.

The IC50 is the concentration that inhibits the measured activity by half.

The target in test [1] is T1, human sodium channels Nav 1.7 (Homo sapiens, UniProt Q15858).
T1 construct: expressed in transfected cells
Briefly: Automated whole-cell voltage-clamp (ScreenPatch 384P) sodium current block in CHO cells expressing Nav 1.7. Format: cell-based. Conditions: CHO cells stably expressing human Nav 1.7; whole cell patch clamp, inactivation step -40 mV 8 s, test step 0 mV (TP1A), room temperature; mean where tested in two or more assays; read-out: Nav1.7 IC50. As for the experimental part: (§1) Biological assays were performed on Chinese hamster ovary (CHO) cells that express human sodium channels Nav 1.8 or Nav 1.7 in a stable manner.
(§2) The experimental protocol voltage-clamp using the whole cell configuration was established on the automated ScreenPatch© 384P platform (SP384PE, Nanion Technologies, Livingston, NJ) and the results were recorded with a Nanion 384-well Patch Clamp chip (NPC) (Nanion Technologies, Livingston, NJ).
(§3) Formula I compounds were diluted in eight concentrations in the extracellular solution composed of saline saline solution, buffered with HEPES (mM): NaCl, 137; KCl, 4; CaCl2, 3.8; MgCl2, 1; HEPES, 10; Glucose, 10; pH 7.4. The […], 50; CsF, 90; MgCl2, 5; EGTA, 5; HEPES, 10; pH 7.2. The duration of exposure of each compound with cells expressing Nav 1.7 or Nav 1.8 was at least five minutes, and the assays were performed at room temperature.
(§4) The measurements of the sodium currents of Nav 1.8 and Nav 1.7 were obtained using the voltage protocol described below.
(§5) A holding voltage of −100 mV was established followed by an inactivation voltage step at −40 mV for 8 seconds, followed by a step of −100 mV for 20 ms, followed by a 20 ms step for 10 mV for Nav 1.8 or 0 mV for Nav 1.7 (TP1A) before returning to the holding voltage of −100 mV.
(§6) The protocol was repeated at a frequency of 0.05 Hz and the amplitude of the current was quantified throughout the recording of the TP1A phase. The variation in the amplitude of the peak current was evaluated according to the formula described below, after exposing the cells expressing the channels to each concentration of the different compounds:
(§7) wherein ITP1A,basal and ITP1A,molecule represent the peaks of sodium current input into TP1A before exposure to the compound and in the presence of the compound, respectively.
(§8) The decrease in the amplitude of the peak current, after the exposure of the cells to the compounds, was used to calculate the percentage of relative blockage of the channels in relation to the positive control according to the formula below: […]
(§9) wherein % V and % CP represent the means of the values of current inhibition with a vehicle (DMSO) and positive controls, respectively. The sodium currents of the positive control were considered as 100%.
(§10) wherein [Test] represents the concentration of the molecule evaluated, CI50 is the concentration of the compound that generates half of the maximum inhibition, N is the Hill coefficient, and % Block′ is the percentage of sodium channel current (Nav 1.8 and Nav 1.7) blocked at each concentration of the molecule evaluated. Data were obtained by nonlinear regression (nonlinear least squares) with XLfit for Excel (Microsoft, Redmond, WA).
(§11) The compounds were tested in at least one assay to obtain the value of CI50. For compounds that were tested in two or more assays, the results are described as the means of the CI50 values.
For orientation: In patch-clamp work, channel activity is measured electrically.

The target in test [2] is T2, human sodium channels Nav 1.8 (Homo sapiens, UniProt Q9Y5Y9).
T2 construct: expressed in transfected cells
Briefly: Automated whole-cell voltage-clamp (ScreenPatch 384P) sodium current block in CHO cells expressing Nav 1.8. The following applies: CHO cells stably expressing human Nav 1.8; whole cell patch clamp, inactivation step -40 mV 8 s, test step 10 mV (TP1A), room temperature; mean where tested in two or more assays; read-out: Nav1.8 IC50. Format: cell-based. As for the experimental part:
as §1, §2, §3, §4, §5, §6, §7, §8, §9, §10, §11

T2 sequence (Q9Y5Y9 whole entry): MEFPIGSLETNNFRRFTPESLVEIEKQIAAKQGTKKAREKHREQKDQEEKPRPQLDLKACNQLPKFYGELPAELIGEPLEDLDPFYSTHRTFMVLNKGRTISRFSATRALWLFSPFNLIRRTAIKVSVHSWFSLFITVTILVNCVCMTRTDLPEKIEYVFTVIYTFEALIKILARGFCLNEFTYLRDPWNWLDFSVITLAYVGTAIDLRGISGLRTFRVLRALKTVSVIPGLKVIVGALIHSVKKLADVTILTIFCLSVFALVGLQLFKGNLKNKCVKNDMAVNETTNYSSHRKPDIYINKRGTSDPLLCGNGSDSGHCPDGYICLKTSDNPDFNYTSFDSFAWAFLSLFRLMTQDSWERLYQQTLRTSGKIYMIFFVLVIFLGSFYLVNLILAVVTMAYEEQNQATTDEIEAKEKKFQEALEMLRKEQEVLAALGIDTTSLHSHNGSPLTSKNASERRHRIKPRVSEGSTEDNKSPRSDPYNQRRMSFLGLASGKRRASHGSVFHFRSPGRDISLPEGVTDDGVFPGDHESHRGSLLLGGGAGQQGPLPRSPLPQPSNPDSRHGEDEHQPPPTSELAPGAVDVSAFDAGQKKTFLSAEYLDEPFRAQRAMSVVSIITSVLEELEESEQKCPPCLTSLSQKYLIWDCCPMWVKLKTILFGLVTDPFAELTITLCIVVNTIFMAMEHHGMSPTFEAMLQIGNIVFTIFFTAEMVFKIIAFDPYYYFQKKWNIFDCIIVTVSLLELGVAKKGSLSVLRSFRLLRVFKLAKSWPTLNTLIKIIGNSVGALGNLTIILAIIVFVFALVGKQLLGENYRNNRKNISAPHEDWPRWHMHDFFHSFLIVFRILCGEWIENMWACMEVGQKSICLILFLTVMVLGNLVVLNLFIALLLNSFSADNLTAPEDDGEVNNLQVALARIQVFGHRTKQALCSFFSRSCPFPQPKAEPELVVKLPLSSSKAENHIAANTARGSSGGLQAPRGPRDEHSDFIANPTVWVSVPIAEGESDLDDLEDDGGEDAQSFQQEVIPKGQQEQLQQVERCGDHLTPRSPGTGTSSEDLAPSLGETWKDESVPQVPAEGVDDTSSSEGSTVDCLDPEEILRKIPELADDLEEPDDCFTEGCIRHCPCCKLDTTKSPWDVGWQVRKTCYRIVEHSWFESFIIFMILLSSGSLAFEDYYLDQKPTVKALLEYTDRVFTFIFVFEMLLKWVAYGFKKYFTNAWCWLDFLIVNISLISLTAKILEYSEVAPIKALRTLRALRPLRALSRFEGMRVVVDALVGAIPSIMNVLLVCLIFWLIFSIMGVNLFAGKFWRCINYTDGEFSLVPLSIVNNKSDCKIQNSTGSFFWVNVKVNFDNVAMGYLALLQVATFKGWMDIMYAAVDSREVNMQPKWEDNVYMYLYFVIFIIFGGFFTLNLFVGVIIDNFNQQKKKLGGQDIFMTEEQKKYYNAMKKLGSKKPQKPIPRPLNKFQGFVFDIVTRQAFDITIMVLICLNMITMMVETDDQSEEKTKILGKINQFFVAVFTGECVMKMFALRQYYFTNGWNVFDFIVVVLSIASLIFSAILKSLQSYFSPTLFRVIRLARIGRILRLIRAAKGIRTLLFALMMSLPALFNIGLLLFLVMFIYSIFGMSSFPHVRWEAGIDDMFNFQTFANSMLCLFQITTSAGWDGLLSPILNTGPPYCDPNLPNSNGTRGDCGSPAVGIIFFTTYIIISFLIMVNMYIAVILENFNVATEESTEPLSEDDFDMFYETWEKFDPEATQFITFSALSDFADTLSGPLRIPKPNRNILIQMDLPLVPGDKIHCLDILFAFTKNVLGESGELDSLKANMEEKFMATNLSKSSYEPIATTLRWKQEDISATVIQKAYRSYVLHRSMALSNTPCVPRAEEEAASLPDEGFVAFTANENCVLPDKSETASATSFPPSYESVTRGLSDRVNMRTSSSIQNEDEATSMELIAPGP
T1 sequence (Q15858 whole entry): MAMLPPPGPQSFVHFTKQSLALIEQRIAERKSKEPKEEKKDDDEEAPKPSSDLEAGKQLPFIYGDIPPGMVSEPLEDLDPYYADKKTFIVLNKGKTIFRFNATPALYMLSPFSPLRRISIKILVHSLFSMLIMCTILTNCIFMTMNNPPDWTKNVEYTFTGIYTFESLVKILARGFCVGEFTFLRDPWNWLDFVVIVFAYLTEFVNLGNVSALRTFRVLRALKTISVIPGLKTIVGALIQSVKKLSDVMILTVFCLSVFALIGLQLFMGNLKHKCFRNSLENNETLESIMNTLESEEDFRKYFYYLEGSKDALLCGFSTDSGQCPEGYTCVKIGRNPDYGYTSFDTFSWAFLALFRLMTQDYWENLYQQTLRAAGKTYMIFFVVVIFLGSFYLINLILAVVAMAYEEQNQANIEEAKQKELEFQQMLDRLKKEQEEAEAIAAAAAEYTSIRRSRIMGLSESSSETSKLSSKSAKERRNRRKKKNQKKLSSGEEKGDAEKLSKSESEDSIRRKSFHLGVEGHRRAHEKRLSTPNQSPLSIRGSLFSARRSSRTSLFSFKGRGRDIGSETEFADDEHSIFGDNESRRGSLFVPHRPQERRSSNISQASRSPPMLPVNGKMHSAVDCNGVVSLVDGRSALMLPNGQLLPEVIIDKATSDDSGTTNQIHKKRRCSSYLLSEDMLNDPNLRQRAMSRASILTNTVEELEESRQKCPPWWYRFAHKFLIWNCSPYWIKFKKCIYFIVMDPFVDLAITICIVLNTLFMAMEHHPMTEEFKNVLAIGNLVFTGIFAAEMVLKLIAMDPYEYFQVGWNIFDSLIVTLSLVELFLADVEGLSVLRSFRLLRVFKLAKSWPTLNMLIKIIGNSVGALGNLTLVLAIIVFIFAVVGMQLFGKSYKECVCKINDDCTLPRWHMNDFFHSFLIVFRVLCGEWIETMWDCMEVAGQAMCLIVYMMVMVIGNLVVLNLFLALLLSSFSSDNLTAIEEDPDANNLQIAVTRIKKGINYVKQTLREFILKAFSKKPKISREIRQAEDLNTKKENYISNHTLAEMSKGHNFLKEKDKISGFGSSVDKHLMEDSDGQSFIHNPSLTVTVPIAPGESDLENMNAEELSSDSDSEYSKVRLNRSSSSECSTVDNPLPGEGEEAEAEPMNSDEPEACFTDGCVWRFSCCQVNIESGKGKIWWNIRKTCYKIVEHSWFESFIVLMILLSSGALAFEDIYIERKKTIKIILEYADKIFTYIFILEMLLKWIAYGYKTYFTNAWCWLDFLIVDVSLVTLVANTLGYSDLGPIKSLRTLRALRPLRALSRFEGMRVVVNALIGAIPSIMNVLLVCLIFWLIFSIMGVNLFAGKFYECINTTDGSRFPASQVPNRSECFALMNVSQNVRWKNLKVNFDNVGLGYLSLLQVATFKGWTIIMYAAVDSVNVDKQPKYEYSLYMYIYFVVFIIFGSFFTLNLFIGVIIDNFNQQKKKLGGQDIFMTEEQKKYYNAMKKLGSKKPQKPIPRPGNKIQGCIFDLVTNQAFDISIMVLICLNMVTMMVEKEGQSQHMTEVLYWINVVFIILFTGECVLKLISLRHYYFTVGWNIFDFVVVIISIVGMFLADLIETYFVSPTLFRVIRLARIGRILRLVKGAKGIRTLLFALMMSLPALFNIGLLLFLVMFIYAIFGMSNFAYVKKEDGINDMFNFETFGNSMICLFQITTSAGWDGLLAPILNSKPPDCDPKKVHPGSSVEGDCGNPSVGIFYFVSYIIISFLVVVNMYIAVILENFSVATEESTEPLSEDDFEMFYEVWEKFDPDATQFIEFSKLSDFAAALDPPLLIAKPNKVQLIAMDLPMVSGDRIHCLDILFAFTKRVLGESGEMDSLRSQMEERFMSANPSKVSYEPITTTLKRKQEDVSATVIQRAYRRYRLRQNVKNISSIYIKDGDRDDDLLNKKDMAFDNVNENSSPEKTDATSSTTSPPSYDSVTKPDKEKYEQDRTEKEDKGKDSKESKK

In the case of `CCOc1ccc(-c2cncc(C(=O)NNCc3cc(OC)ccc3C)n2)cn1` [Compound 33, 6-(6-ethoxypyridin-3-yl)-N′-(5-methoxy-2-methylbenzyl)pyrazine-2-carbohydrazide], the results for the IC50 in test [1] and in test [2] were above 1000 nM and below 500 nM, respectively.

Take `CCOc1ccc(-c2cncc(C(=O)NNCc3ccccc3F)n2)cc1` [Compound 22, 6-(4-ethoxyphenyl)-N′-(2-fluorobenzyl)pyrazine-2-carbohydrazide]: the IC50 in test [1] is above 1000 nM; in test [2], below 500 nM.

`CCOc1ccc(-c2cccc(C(=O)NNCc3ccccc3F)n2)cc1` [Compound 50, 6-(4-ethoxyphenyl)-N′-(2-fluorobenzyl)picolinohydrazide]: the IC50 in test [1] and in test [2] was above 1000 nM in each case.

Consider `CCOc1ccc(-c2cncc(C(=O)NNCc3cc(OC)cc(OC)c3)n2)cn1` [Compound 29, N′-(3,5-dimethoxybenzyl)-6-(6-ethoxypyridin-3-yl)pyrazine-2-carbohydrazide], for which the IC50 is above 1000 nM in test [1] and 500 to 1000 nM in test [2].

For `CCOc1ccc(-c2cncc(C(=O)NN[C@@H](C)c3cc(OC)cc(OC)c3)n2)cc1` (single isomer, unassigned) [Compound 24], the IC50 in test [1] and in test [2] was above 1000 nM in each case.

Turning to `CCOc1ccc(-c2cncc(C(=O)NNCc3cc(OC)cnc3C)n2)cc1` [Compound 18, 6-(4-ethoxyphenyl)-N′-((5-methoxy-2-methylpyridin-3-yl)methyl)pyrazine-2-carbohydrazide], the IC50 was above 1000 nM in test [1] and below 500 nM in test [2].

With `CCOc1ccc(-c2cncc(C(=O)NNCc3cccc(OC)c3)n2)cn1` [Compound 30, 6-(6-ethoxypyridin-3-yl)-N′-(3-methoxybenzyl)pyrazine-2-carbohydrazide], the IC50 in test [1] was above 1000 nM; in test [2], below 500 nM.

Turning to `CCOc1ccc(-c2cncc(C(=O)NNCc3cc(OC)ccc3C)n2)cc1` [Compound 14, 6-(4-ethoxyphenyl)-N′-(5-methoxy-2-methylbenzyl)pyrazine-2-carbohydrazide], the IC50 in test [1] is above 1000 nM; in test [2], below 500 nM.

Consider `COc1cc(CNNC(=O)c2cncc(-c3ccc(OC4CC4)nc3)n2)cc(OC)c1` [Compound 42, 6-(6-cyclopropoxypyridin-3-yl)-N′-(3,5-dimethoxybenzyl)pyrazine-2-carbohydrazide], for which the values for the IC50 in test [1] and in test [2] were above 1000 nM and 500 to 1000 nM, respectively.

As to `CCOc1ccc(-c2cncc(C(=O)NNCc3cc(OC)cnc3F)n2)cc1` [Compound 26, 6-(4-ethoxyphenyl)-N′-((2-fluoro-5-methoxypyridin-3-yl)methyl)pyrazine-2-carbohydrazide], the values for the IC50 in test [1] and in test [2] were above 1000 nM and 500 to 1000 nM, respectively.

`COc1cc(CNNC(=O)c2cncc(-c3ccc(OC(F)F)nc3)n2)cc(OC)c1` [Compound 8, 6-(6-(difluoromethoxy)pyridin-3-yl)-N′-(3,5-dimethoxybenzyl)pyrazine-2-carbohydrazide]: the IC50 is above 1000 nM in test [1] and below 500 nM in test [2].

For the compound `CCOc1ccc(-c2cncc(C(=O)NN(C)Cc3cc(OC)cc(OC)c3)n2)cc1` [Compound 17, N′-(3,5-dimethoxybenzyl)-6-(4-ethoxyphenyl)-N′-methylpyrazine-2-carbohydrazide], the IC50 in test [1] and in test [2] was above 1000 nM each time.

In the case of `CCOc1ccc(-c2cncc(C(=O)NNCc3ccccc3F)n2)cn1` [Compound 39, 6-(6-ethoxypyridin-3-yl)-N′-(2-fluorobenzyl)pyrazine-2-carbohydrazide], the IC50 in test [1] is above 1000 nM; in test [2], below 500 nM.

As to `COc1ccc(-c2cncc(C(=O)NNCc3ccc(Cl)cc3)n2)cc1` [Compound 2, N′-(4-chlorobenzyl)-6-(4-methoxyphenyl)pyrazine-2-carbohydrazide], the IC50 in test [1] and in test [2] was above 1000 nM throughout.

As for `O=C(NN1CCc2cc(Cl)ccc2C1)c1cncc(-c2ccc(Cl)cc2)n1` [Compound 6, N-(6-chloro-3,4-dihydroisoquinoline-2 (1H)-yl)-6-(4-chlorophenyl)pyrazine-2-carboxamide], the IC50 in test [1] and in test [2] was above 1000 nM throughout.

As to `CCOc1ccc(-c2ccnc(C(=O)NNCc3ccccc3F)c2)cc1` [Compound 48, 4-(4-ethoxyphenyl)-N′-(2-fluorobenzyl)picolinohydrazide], the IC50 in test [1] and in test [2] was above 1000 nM each time.

`CCOc1ccc(-c2cncc(C(=O)NNCc3cc(OC)ccc3F)n2)cn1` [Compound 32, 6-(6-ethoxypyridin-3-yl)-N′-(2-fluoro-5-methoxybenzyl)pyrazine-2-carbohydrazide]: the IC50 is above 1000 nM in test [1] and below 500 nM in test [2].

In the case of `CCOc1ccc(-c2cncc(C(=O)NNCc3cc(OC)cnc3C)n2)cn1` [Compound 34, 6-(6-ethoxypyridin-3-yl)-N′-((5-methoxy-2-methylpyridin-3-yl)methyl)pyrazine-2-carbohydrazide], the IC50 was above 1000 nM in test [1] and below 500 nM in test [2].

With `CCOc1ccc(-c2cncc(C(=O)NN3Cc4ccc(OC)cc4C3)n2)cc1` [Compound 13, 6-(4-ethoxyphenyl)-N-(5-methoxyisoindolin-2-yl)pyrazine-2-carboxamide], the IC50 was above 1000 nM in test [1] and below 500 nM in test [2].

Consider `CCOc1ccc(-c2cncc(C(=O)NNCc3cc(OC)cc(OC)c3)n2)c(C)c1` [Compound 28, N′-(3,5-dimethoxybenzyl)-6-(4-ethoxy-2-methylphenyl)pyrazine-2-carbohydrazide], for which the IC50 is above 1000 nM in test [1] and below 500 nM in test [2].

Consider `CCOc1ccc(-c2cncc(C(=O)NN3CCOc4ccc(OC)cc4C3)n2)cc1` [Compound 12, 6-(4-ethoxyphenyl)-N-(7-methoxy-2,3-dihydrobenzo[f][1,4]oxazepine-4(5H)-yl)pyrazine-2-carboxamide], for which the IC50 in test [1] and in test [2] was above 1000 nM each time.

Turning to `COc1cc(CNNC(=O)c2cncc(-c3ccc(OC(C)C)cc3)n2)cc(OC)c1` [Compound 3, N′-(3,5-dimethoxybenzyl)-6-(4-isopropoxyphenyl)pyrazine-2-carbohydrazide], the IC50 in test [1] is above 1000 nM; in test [2], below 500 nM.

Take `CCOc1ccc(-c2cncc(C(=O)NNCc3cc(OC)cc(OC)c3)n2)cc1` [Compound 10, N′-(3,5-dimethoxybenzyl)-6-(4-ethoxyphenyl)pyrazine-2-carbohydrazide]: the IC50 in test [1] is 500 to 1000 nM; in test [2], below 500 nM.

Take `CCOc1ccc(-c2cncc(C(=O)NNCc3cc(OC)cc(OC)c3)n2)c(C)n1` [Compound 41, N′-(3,5-dimethoxybenzyl)-6-(6-ethoxy-2-methylpyridin-3-yl)pyrazine-2-carbohydrazide]: the 50% inhibitory concentration (IC50) in test [1] was above 1000 nM; in test [2], 500 to 1000 nM.

Turning to `CCOc1ccc(-c2cncc(C(=O)NN3CCc4ccc(OC)cc4C3)n2)cc1` [Compound 45, 6-(4-ethoxyphenyl)-N-(7-methoxy-3,4-dihydroisoquinoline-2(1H)-yl)pyrazine-2-carboxamide], the values for the IC50 in test [1] and in test [2] were above 1000 nM and below 500 nM, respectively.

For `CCOc1ccc(-c2cncc(C(=O)NNCc3ccc(Cl)cc3)n2)cc1` [Compound 9, N′-(4-chlorobenzyl)-6-(4-ethoxyphenyl)pyrazine-2-carbohydrazide], the IC50 in test [1] and in test [2] was above 1000 nM in each case.

For `CCOc1ccc(-c2cncc(C(=O)NNCc3ccccc3F)c2)cc1` [Compound 49, 5-(4-ethoxyphenyl)-N′-(2-fluorobenzyl)nicotinohydrazide], the results for the IC50 in test [1] and in test [2] were above 1000 nM and below 500 nM, respectively.

Turning to `CCOc1ccc(-c2cncc(C(=O)NNCc3cc(OC)cnc3F)n2)cn1` [Compound 31, 6-(6-ethoxypyridin-3-yl)-N′-((2-fluoro-5-methoxypyridin-3-yl)methyl)pyrazine-2-carbohydrazide], the IC50 in test [1] and in test [2] was above 1000 nM in each case.
